How the values were obtained:
Experiment in all cases: Eurofins kinase selectivity profile against 380 other human recombinant kinases (Table S2)
Assay type in all cases: biochemical
[1] = target: T1, 380 human recombinant protein kinases (Homo sapiens, UniProt Q96PF2); conditions: TSSK2(h), read-out: Inhibition rate (%)
T1 construct: purchased Eurofins (Celle Lévescault)
T1 sequence (Q96PF2 1-358): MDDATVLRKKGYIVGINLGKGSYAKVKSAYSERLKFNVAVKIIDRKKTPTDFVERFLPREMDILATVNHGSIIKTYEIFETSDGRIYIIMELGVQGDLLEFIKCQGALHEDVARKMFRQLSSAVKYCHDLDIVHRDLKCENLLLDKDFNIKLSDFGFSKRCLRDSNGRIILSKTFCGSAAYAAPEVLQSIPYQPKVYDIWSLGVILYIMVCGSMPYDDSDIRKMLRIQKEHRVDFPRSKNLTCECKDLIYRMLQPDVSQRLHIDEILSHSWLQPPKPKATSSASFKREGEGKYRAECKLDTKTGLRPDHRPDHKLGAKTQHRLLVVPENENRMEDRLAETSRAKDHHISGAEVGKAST
Procedure, shortened: (§1)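 Off-target profiling: one compound assayed by a commercial provider over 380 recombinant human protein kinases at various concentrations.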

[2] = target: T2, 380 human recombinant protein kinases (Homo sapiens, UniProt O00329); conditions: PI3 Kinase (p110δ/p85α)(h), read-out: Inhibition rate (%)
T2 construct: purchased Eurofins (Celle Lévescault)
T2 sequence (O00329 1-1044): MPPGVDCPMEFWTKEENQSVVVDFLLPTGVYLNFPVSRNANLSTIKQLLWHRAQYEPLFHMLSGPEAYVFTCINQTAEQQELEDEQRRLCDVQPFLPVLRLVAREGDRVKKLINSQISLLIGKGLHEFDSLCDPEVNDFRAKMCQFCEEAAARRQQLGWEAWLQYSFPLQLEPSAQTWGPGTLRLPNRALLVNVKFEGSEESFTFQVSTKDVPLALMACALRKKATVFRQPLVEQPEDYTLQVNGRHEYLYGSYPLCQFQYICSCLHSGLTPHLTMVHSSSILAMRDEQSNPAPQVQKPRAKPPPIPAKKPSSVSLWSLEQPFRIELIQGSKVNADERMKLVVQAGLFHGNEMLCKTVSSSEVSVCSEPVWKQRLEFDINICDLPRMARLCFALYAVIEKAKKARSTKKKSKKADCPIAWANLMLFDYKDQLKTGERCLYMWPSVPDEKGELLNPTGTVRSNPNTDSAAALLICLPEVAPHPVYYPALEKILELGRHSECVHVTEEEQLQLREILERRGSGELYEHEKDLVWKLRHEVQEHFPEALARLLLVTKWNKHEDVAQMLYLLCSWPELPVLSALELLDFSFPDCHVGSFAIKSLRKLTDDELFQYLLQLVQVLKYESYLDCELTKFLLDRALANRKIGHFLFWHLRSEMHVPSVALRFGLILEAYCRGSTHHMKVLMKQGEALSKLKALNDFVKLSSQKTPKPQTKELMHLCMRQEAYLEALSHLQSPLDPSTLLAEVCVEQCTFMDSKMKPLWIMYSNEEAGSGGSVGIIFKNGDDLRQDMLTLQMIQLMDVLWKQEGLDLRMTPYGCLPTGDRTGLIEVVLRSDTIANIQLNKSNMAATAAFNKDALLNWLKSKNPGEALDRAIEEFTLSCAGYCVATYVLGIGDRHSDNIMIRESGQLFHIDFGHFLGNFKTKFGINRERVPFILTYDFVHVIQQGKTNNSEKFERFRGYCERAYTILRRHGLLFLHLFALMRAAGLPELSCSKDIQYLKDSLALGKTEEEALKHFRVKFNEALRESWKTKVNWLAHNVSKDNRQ
Procedure, shortened: as §1

[3] = target: T3, 380 human recombinant protein kinases (Homo sapiens, UniProt O96017); conditions: CHK2(h), read-out: Inhibition rate
T3 construct: purchased Eurofins (Celle Lévescault)
Procedure, shortened: as §1

[4] = target: T4, 380 human recombinant protein kinases (Homo sapiens, UniProt P51451); conditions: Blk(h), read-out: Inhibition rate
T4 construct: purchased Eurofins (Celle Lévescault)
Procedure, shortened: as §1

[5] = target: T5, 380 human recombinant protein kinases (Homo sapiens, UniProt Q02779); conditions: MLK2(h), read-out: Inhibition rate
T5 construct: purchased Eurofins (Celle Lévescault)
Procedure, shortened: as §1

[6] = target: T6, 380 human recombinant protein kinases (Homo sapiens, UniProt O43318); conditions: TAK1(h), read-out: Inhibition rate (%)
T6 construct: purchased Eurofins (Celle Lévescault)
T6 sequence (O43318 1-606): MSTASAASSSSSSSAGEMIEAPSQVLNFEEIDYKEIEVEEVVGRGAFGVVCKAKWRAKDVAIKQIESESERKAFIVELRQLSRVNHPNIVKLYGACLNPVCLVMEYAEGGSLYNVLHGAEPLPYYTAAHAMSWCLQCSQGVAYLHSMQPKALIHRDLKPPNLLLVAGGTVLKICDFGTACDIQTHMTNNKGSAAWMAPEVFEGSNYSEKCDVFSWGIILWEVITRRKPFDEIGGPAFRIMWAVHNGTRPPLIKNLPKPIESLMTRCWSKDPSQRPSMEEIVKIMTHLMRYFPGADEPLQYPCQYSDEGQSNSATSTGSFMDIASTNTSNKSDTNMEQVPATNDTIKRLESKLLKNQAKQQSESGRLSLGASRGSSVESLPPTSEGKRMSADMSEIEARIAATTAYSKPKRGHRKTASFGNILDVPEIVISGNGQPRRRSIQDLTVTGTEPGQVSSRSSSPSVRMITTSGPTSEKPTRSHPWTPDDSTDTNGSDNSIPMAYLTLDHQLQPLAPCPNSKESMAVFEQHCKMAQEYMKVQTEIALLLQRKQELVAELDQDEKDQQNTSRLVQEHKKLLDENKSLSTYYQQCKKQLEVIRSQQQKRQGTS
Procedure, shortened: as §1

T4 sequence (P51451 whole entry): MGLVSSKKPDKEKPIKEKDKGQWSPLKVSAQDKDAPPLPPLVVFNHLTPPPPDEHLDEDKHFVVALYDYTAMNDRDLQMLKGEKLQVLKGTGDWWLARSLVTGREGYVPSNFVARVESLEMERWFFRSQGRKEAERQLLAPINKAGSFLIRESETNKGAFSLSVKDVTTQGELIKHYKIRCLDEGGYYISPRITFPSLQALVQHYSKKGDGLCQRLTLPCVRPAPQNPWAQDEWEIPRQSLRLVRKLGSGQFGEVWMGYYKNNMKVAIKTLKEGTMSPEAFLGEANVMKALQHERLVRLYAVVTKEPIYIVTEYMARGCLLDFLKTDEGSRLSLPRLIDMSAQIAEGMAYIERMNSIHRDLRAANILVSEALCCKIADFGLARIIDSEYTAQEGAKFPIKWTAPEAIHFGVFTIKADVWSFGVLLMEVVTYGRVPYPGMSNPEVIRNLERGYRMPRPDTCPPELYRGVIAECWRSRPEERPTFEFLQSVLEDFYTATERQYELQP
T5 sequence (Q02779 whole entry): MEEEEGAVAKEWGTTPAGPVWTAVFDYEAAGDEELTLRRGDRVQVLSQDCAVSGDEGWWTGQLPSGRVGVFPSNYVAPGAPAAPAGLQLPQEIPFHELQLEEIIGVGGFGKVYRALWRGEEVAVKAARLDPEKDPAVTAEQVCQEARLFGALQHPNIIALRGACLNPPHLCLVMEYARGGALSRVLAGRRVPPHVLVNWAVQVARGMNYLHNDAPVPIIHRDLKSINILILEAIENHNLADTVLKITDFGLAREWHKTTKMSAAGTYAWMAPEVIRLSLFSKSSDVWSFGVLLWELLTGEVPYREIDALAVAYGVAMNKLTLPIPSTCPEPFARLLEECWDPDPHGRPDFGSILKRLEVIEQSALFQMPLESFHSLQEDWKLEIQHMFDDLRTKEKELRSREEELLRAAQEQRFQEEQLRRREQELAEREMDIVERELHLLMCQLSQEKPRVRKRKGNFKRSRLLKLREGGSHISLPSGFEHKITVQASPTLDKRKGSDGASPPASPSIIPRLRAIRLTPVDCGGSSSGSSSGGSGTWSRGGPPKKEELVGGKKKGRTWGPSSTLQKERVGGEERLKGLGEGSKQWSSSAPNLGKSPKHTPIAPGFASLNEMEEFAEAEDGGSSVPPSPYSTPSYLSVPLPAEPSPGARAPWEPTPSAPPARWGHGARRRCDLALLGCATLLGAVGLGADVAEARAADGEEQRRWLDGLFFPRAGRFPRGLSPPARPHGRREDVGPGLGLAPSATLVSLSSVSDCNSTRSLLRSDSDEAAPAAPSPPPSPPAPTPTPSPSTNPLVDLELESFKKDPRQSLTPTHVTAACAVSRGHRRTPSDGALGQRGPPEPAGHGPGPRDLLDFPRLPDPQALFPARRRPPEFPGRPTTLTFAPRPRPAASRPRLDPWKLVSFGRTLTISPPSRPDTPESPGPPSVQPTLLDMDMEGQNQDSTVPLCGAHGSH
T3 sequence (O96017 whole entry): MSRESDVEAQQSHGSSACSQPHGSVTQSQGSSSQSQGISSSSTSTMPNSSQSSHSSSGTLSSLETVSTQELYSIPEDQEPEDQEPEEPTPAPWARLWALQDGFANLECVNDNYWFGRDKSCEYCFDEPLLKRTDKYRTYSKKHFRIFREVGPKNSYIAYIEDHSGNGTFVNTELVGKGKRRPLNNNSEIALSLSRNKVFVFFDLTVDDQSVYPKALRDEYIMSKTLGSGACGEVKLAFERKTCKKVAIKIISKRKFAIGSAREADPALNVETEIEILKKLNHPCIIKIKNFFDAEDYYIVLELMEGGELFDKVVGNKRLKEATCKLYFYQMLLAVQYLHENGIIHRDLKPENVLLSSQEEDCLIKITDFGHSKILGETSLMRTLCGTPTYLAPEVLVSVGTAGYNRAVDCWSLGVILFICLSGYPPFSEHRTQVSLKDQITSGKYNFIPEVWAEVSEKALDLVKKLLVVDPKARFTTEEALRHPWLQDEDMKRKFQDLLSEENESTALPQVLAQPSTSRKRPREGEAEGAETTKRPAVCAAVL

Question: How did the inhibition at 0.01 µM ([1]; 10 nM) turn out when `C=CC(=O)Nc1cc(-c2cc(-c3cc4c([nH]3)CCNC4=O)ccn2)ccc1OC(F)(F)F` [compound 11] was run?
Answer: -7%

Question: What about the inhibition at 0.1 µM ([1]; 100 nM) of the same molecule?
Answer: -5%

Question: And the inhibition at 1 µM ([1]; 1000 nM)?
Answer: -5%

Question: And the inhibition at 0.01 µM ([2]; 10 nM)?
Answer: -3%

Question: And the inhibition at 0.1 µM ([2]; 100 nM)?
Answer: -1%

Question: What about the inhibition at 1 µM ([2]; 1000 nM) of the same molecule?
Answer: 2%

Question: And the inhibition at 0.01 µM ([3]; 10 nM)?
Answer: 3%

Question: And the inhibition at 0.1 µM ([3]; 100 nM)?
Answer: 16%

Question: What about the inhibition at 1 µM ([3]; 1000 nM) of the same molecule?
Answer: 55%

Question: What about the inhibition at 0.01 µM ([4]; 10 nM) of the same molecule?
Answer: 13%

Question: And the inhibition at 0.1 µM ([4]; 100 nM)?
Answer: 4%

Question: What about the inhibition at 1 µM ([4]; 1000 nM) of the same molecule?
Answer: 12%

Question: And the inhibition at 0.01 µM ([5]; 10 nM)?
Answer: -5%

Question: What about the inhibition at 0.1 µM ([5]; 100 nM) of the same molecule?
Answer: 2%

Question: What about the inhibition at 1 µM ([5]; 1000 nM) of the same molecule?
Answer: 10%

Question: What about the inhibition at 0.01 µM ([6]; 10 nM) of the same molecule?
Answer: 9%

Question: What about the inhibition at 0.1 µM ([6]; 100 nM) of the same molecule?
Answer: 2%

Question: What about the inhibition at 1 µM ([6]; 1000 nM) of the same molecule?
Answer: 47%

Source: publication PMC11233931, “Remodeling tumor‐associated macrophage for anti‐cancer effects by rational design of irreversible inhibition of mitogen‐activated protein kinase‐activated protein kinase 2” (MedComm, 2024)
